Test results from publication PMC4052943 (BioMed Research International, 2014).
Like-named read-outs stand apart in the source and are kept apart here.

What was measured:
A549 cells = assay: MTT cell proliferation assay; type: cell-based; settings: Homo sapiens; A549; 50 μg/mL; 48 h; read-out: inhibition of cells (antiproliferative activity, MTT)
Method: (§1) Inhibition of cell proliferation by PC and EA was measured with the MTT assay. Human lung cancer A549 and H1299 cells were obtained from ATCC (Manassas, VA, USA) and maintained in DMEM supplemented with 10% fetal calf serum (FCS), 1% penicillin/streptomycin. Cells were plated in 96-well culture plates (5 × 10^3 cells/well). After 24 h incubation, cells were treated with vehicle alone (0.1% DMSO) and PC and EA (12.5–200 μg/mL) extracts for 48 h. Then, the culture medium was replaced by 100 μL of fresh medium containing 0.5 mg/mL MTT, and the plates were incubated for 2 h at 37°C. The medium was then removed and was replaced by 200 μL of DMSO to solubilize the converted purple dye. The absorbance was measured with a spectrophotometer microplate reader at a wavelength of 570 nm.

H1299 cells = assay: MTT cell proliferation assay; type: cell-based; settings: Homo sapiens, NCI-H1299; H1299; 50 μg/mL; 48 h; read-out: inhibition of cells (antiproliferative activity, MTT)
Method: as §1

[1] = test system: Salmonella typhimurium TA97a; assay: Ames antimutagenicity assay (preincubation); settings: for inhibition at 50 µM / inhibition at 100 µM / inhibition at 250 µM / inhibition at 500 µM: Salmonella enterica, TYPHIMURIUM; for Number of His+ revertants colonies/plate: TA 97a;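 on all read-outs here: compound and mutagen preincubated together 30 min at 37 °C before adding bacteria, then plated on minimal glucose agar for 48 h and His+ revertant colonies counted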
Method: (§2) In the preincubation experiment, test compounds and mutagen, each having a volume of 0.1 mL of varying concentrations, were preincubated at 37°C for 30 min and then 0.1 mL of 1 × 10^7 CFU/mL density of the bacterial culture was added, followed by the addition of 2.5 mL of top agar at 45°C (containing 0.5% NaCl and 0.6% agar) supplemented with 0.5 mM histidine-biotin. […] The combined solutions were vortexed and poured onto minimal glucose plates (40% glucose solution and Vogel Bonner medium). The plates were incubated at 37°C for 48 h and the numbers of histidine-independent revertants colonies were scored.
(§3) Survival of the bacteria was routinely monitored for each experiment. Parallel controls were run with compounds alone at all concentrations to test the possible toxicity. The concentrations of the test samples for investigating the antimutagenicity were 50, 100, 200, and 500 μM. […] All the test samples and mutagens were dissolved in DMSO (final conc., 0.01%). […] Plates were set up in triplicate for each concentration and the entire experiment was repeated three times. Inhibition of mutagenicity was expressed as percentage decrease of reverse mutation and calculated as (1) Percent inhibition=[(a−b)/(a−c)]×100, where a = number of histidine revertants induced by mutagen, b = number of histidine revertants induced by mutagen in the presence of test compound, and c = number of revertants induced in negative control.

[2] = test system: Salmonella typhimurium TA98; assay: Ames antimutagenicity assay (preincubation); settings: for inhibition at 50 µM / inhibition at 100 µM / inhibition at 250 µM / inhibition at 500 µM: Salmonella enterica, TYPHIMURIUM;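 on all read-outs here: test compound and mutagen preincubated 30 min at 37°C before adding bacteria, then His+ revertant colonies counted after 48 h plating, inhibition relative to mutagen-only versus negative-control revertants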
Method: as §2, §3

O=c1oc2c(O)c(O)cc3c(=O)oc4c(O)c(O)cc1c4c23 [Ellagic acid, ellagic acid]
inhibition at 50 µg/mL (A549 cells): 39% | inhibition at 50 µg/mL (H1299 cells): 34% | inhibition at 50 µM ([1]; read-out: % inhibition of mutagenicity, TA 97a, 50 μM + 2AF, S9): 12.5% | inhibition at 50 µM ([1]; read-out: % inhibition of mutagenicity, TA 97a, 50 μM + BP, S9): 14.1% | inhibition at 50 µM ([1]; read-out: % inhibition of mutagenicity, TA 97a, 50 μM + MMS, no S9): 9% | inhibition at 50 µM ([1]; read-out: % inhibition of mutagenicity, TA 97a, 50 μM + NaN3, no S9): 21.1% | inhibition at 100 µM ([1]; read-out: % inhibition of mutagenicity, TA 97a, 100 μM + 2AF, S9): 22.6% | inhibition at 100 µM ([1]; read-out: % inhibition of mutagenicity, TA 97a, 100 μM + BP, S9): 36% | inhibition at 100 µM ([1]; read-out: % inhibition of mutagenicity, TA 97a, 100 μM + MMS, no S9): 25% | inhibition at 100 µM ([1]; read-out: % inhibition of mutagenicity, TA 97a, 100 μM + NaN3, no S9): 39.4% | inhibition at 250 µM ([1]; read-out: % inhibition of mutagenicity, TA 97a, 250 μM + BP, S9): 71.8% | inhibition at 250 µM ([1]; read-out: % inhibition of mutagenicity, TA 97a, 250 μM + MMS, no S9): 42.2% | inhibition at 250 µM ([1]; read-out: % inhibition of mutagenicity, TA 97a, 250 μM + NaN3, no S9): 53.6% | inhibition at 500 µM ([1]; read-out: % inhibition of mutagenicity, TA 97a, 500 μM + 2AF, S9): 81.7% | inhibition at 500 µM ([1]; read-out: % inhibition of mutagenicity, TA 97a, 500 μM + BP, S9): 83.5% | inhibition at 500 µM ([1]; read-out: % inhibition of mutagenicity, TA 97a, 500 μM + MMS, no S9): 66.5% | inhibition at 500 µM ([1]; read-out: % inhibition of mutagenicity, TA 97a, 500 μM + NaN3, no S9): 72.1% | Number of His+ revertants colonies/plate ([1]; 50 μM + 2AF, S9): 312.3 ± 20.5 colonies/plate | Number of His+ revertants colonies/plate ([1]; 50 μM + BP, S9): 652.7 ± 35.3 colonies/plate | Number of His+ revertants colonies/plate ([1]; 50 μM + MMS, no S9): 426.3 ± 11.6 colonies/plate | Number of His+ revertants colonies/plate ([1]; 50 μM + NaN3, no S9): 242.0 ± 11.8 colonies/plate | Number of His+ revertants colonies/plate ([1]; 100 μM + 2AF, S9): 296.7 ± 13.4 colonies/plate | Number of His+ revertants colonies/plate ([1]; 100 μM + BP, S9): 529.0 ± 28.6 colonies/plate | Number of His+ revertants colonies/plate ([1]; 100 μM + MMS, no S9): 378.0 ± 10.8 colonies/plate | Number of His+ revertants colonies/plate ([1]; 100 μM + NaN3, no S9): 219.3 ± 7.1 colonies/plate | Number of His+ revertants colonies/plate ([1]; 250 μM + BP, S9): 333.3 ± 22.2 colonies/plate | Number of His+ revertants colonies/plate ([1]; 250 μM + MMS, no S9): 321.3 ± 10.8 colonies/plate | Number of His+ revertants colonies/plate ([1]; 250 μM + NaN3, no S9): 196.7 ± 8.2 colonies/plate | Number of His+ revertants colonies/plate ([1]; 500 μM + 2AF, S9): 212.0 ± 10.4 colonies/plate | Number of His+ revertants colonies/plate ([1]; 500 μM + BP, S9): 275.3 ± 17.5 colonies/plate | Number of His+ revertants colonies/plate ([1]; 500 μM + MMS, no S9): 239.7 ± 10.8 colonies/plate | Number of His+ revertants colonies/plate ([1]; 500 μM + NaN3, no S9): 168.0 ± 7.0 colonies/plate | inhibition at 50 µM ([2]; read-out: % inhibition of mutagenicity, TA 98, 50 μM + 2AF, S9): 19.4% | inhibition at 50 µM ([2]; read-out: % inhibition of mutagenicity, TA 98, 50 μM + BP, S9): 22.2% | inhibition at 50 µM ([2]; read-out: % inhibition of mutagenicity, TA 98, 50 μM + MMS, no S9): 22.2% | inhibition at 100 µM ([2]; read-out: % inhibition of mutagenicity, TA 98, 100 μM + 2AF, S9): 39.6% | inhibition at 100 µM ([2]; read-out: % inhibition of mutagenicity, TA 98, 100 μM + BP, S9): 48.2% | inhibition at 100 µM ([2]; read-out: % inhibition of mutagenicity, TA 98, 100 μM + MMS, no S9): 34% | inhibition at 100 µM ([2]; read-out: % inhibition of mutagenicity, TA 98, 100 μM + NaN3, no S9): 27.9% | inhibition at 250 µM ([2]; read-out: % inhibition of mutagenicity, TA 98, 250 μM + BP, S9): 62.3% | inhibition at 250 µM ([2]; read-out: % inhibition of mutagenicity, TA 98, 250 μM + MMS, no S9): 50% | inhibition at 250 µM ([2]; read-out: % inhibition of mutagenicity, TA 98, 250 μM + NaN3, no S9): 50% | inhibition at 500 µM ([2]; read-out: % inhibition of mutagenicity, TA 98, 500 μM + 2AF, S9): 80% | inhibition at 500 µM ([2]; read-out: % inhibition of mutagenicity, TA 98, 500 μM + BP, S9): 78.6% | inhibition at 500 µM ([2]; read-out: % inhibition of mutagenicity, TA 98, 500 μM + MMS, no S9): 69% | inhibition at 500 µM ([2]; read-out: % inhibition of mutagenicity, TA 98, 500 μM + NaN3, no S9): 64.2% | Number of His+ revertants colonies/plate ([2]; TA 98, 50 μM + 2AF, S9): 214.3 ± 13.9 colonies/plate | Number of His+ revertants colonies/plate ([2]; TA 98, 50 μM + BP, S9): 140.0 ± 12.2 colonies/plate | Number of His+ revertants colonies/plate ([2]; TA 98, 50 μM + MMS, no S9): 53.0 ± 1.2 colonies/plate | Number of His+ revertants colonies/plate ([2]; TA 98, 100 μM + 2AF, S9): 171.0 ± 9.5 colonies/plate | Number of His+ revertants colonies/plate ([2]; TA 98, 100 μM + BP, S9): 107.3 ± 7.9 colonies/plate | Number of His+ revertants colonies/plate ([2]; TA 98, 100 μM + MMS, no S9): 48.3 ± 2.0 colonies/plate | Number of His+ revertants colonies/plate ([2]; TA 98, 100 μM + NaN3, no S9): 48.3 ± 2.7 colonies/plate | Number of His+ revertants colonies/plate ([2]; TA 98, 250 μM + BP, S9): 86.3 ± 5.8 colonies/plate | Number of His+ revertants colonies/plate ([2]; TA 98, 250 μM + MMS, no S9): 44.0 ± 2.1 colonies/plate | Number of His+ revertants colonies/plate ([2]; TA 98, 250 μM + NaN3, no S9): 43.3 ± 2.6 colonies/plate | Number of His+ revertants colonies/plate ([2]; TA 98, 500 μM + 2AF, S9): 76.3 ± 6.1 colonies/plate | Number of His+ revertants colonies/plate ([2]; TA 98, 500 μM + BP, S9): 60.7 ± 10.5 colonies/plate | Number of His+ revertants colonies/plate ([2]; TA 98, 500 μM + MMS, no S9): 37.3 ± 2.6 colonies/plate | Number of His+ revertants colonies/plate ([2]; TA 98, 500 μM + NaN3, no S9): 38.0 ± 1.7 colonies/plate
